Among the test systems are A549; CCRF-CEM; HCT-15; IGROV-1; M14; MDA-MB-435; MDA-N; NCI-H226; NCI-H23; NCI/ADR-RES; OVCAR-8; SK-MEL-2; SK-MEL-5; SN12C; TK-10; UACC-257; EKVX; HCT-116; COLO 205; SNB-75.
What all share (assay): inhibition of tumour cell growth, NCI panel, 48 h

Data on four molecules can be found in ChEMBL document CHEMBL1201862, “PubChem BioAssay data set” (2004).

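The compound was tested at five concentrations on cells cultured in 96-well plates, with a 48-hour exposure period. GI50: concentration for 50% inhibition of growth.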 Active and inactive are the calls of the source. Rule as the data show it: active = GI50 up to about 1.1 µM and inactive = higher.

On to `O=[N+]([O-])c1ccc2c(c1)c(OCc1ccccc1)nn2Cc1ccccc1`, for which the GI50 in the test with A549 is 64.1 µM (inactive); in the test on CCRF-CEM, 40.1 µM (inactive); in the test with HCT-15, 53 µM; in the test on IGROV-1, > 100 µM (inactive); in the test on M14 it was > 100 µM (inactive); in the test with MDA-MB-435, > 100 µM (inactive). Besides, the GI50 in the test with MDA-N, with NCI-H226, with NCI-H23, with NCI/ADR-RES, in the test on OVCAR-8 and in the test with SK-MEL-2 was > 100 µM (inactive) in each case. Besides, the GI50 in the test with SK-MEL-5 was 58.2 µM (inactive); with SN12C it was > 100 µM (inactive); in the test on TK-10, 62.1 µM (inactive); in the test with UACC-257, > 100 µM (inactive).
Turning to `COc1c(O)cc(C(=O)O[C@@H]2Cc3c(O)cc(O)cc3O[C@@H]2c2cc(O)c(O)c(O)c2)cc1O`, the GI50 was 23 µM (inactive) with A549; 24.8 µM (inactive) in the test with EKVX; 17.9 µM (inactive) with HCT-116; 26.5 µM in the test with HCT-15; 46.2 µM (inactive) in the test on IGROV-1; 59.4 µM (inactive) with M14. Further, the GI50 was 17.4 µM (inactive) in the test with MDA-MB-435; 24.4 µM (inactive) in the test on MDA-N; 31.5 µM (inactive) with NCI-H23; 32.9 µM (inactive) in the test on NCI/ADR-RES; 23.3 µM (inactive) in the test with OVCAR-8; 63.2 µM (inactive) in the test with SK-MEL-2. Moreover, the GI50 with SK-MEL-5 is 26.7 µM (inactive); in the test with SN12C, 19.7 µM (inactive); with TK-10 it was > 100 µM (inactive); with UACC-257, 53.3 µM (inactive).
As for `CC(=O)OC[C@@H]1[C@H]2CC[C@]3(C)[C@@H](OC(C)=O)CC[C@H]3[C@@H]2CC[C@H]1C1(C)SCCS1`, the GI50 with A549 was > 25 µM (inactive); with CCRF-CEM it was > 25 µM (inactive); in the test with COLO 205, > 25 µM (inactive); with EKVX, > 25 µM (inactive); in the test with HCT-116, > 25 µM (inactive); with HCT-15, greater than 25 µM. Besides, the GI50 in the test with IGROV-1, in the test with M14, in the test on MDA-MB-435, in the test with MDA-N, in the test on NCI-H226 and in the test with NCI-H23 was > 25 µM (inactive) in each case. Besides, the GI50 in the test on NCI/ADR-RES was > 25 µM (inactive); with OVCAR-8, > 25 µM (inactive); with SK-MEL-5, 23.2 µM (inactive); in the test on SN12C, > 25 µM (inactive); with SNB-75, > 25 µM (inactive); in the test on TK-10 it was > 25 µM (inactive). Also, the GI50 with UACC-257 is > 25 µM (inactive).
In the case of `COc1ccc(/N=N/C(=N/NC(=O)c2ccc(C)cc2)c2ccc(N(CCC#N)CCC#N)cc2OC)cc1`, the GI50 was > 100 µM (inactive) in the test with A549; > 100 µM (inactive) with COLO 205; > 100 µM (inactive) in the test with EKVX; > 100 µM (inactive) in the test with HCT-116; greater than 100 µM with HCT-15; > 100 µM (inactive) in the test with IGROV-1. Moreover, the GI50 with M14, in the test with MDA-MB-435, with MDA-N, with NCI-H226, in the test with NCI-H23 and with NCI/ADR-RES was > 100 µM (inactive) throughout. Further, the GI50 in the test with OVCAR-8, in the test on SK-MEL-2, in the test with SK-MEL-5, in the test with SN12C, with TK-10 and with UACC-257 was > 100 µM (inactive) in each case.
